Results: the NIST ThermoML archive (doi:10.1021/je060107n)
Numbers after ± are expanded uncertainties.

Assay: mn = molality of the nth substance listed, in mol/kg
Details: 101 kPa, Liquid; for speed of sound: Linear variable-path acoustic interferometer; for mass density: Pycnometric method; for viscosity: Capillary tube (Ostwald / Ubbelohde) method

O=[N+]([O-])[O-].O=[N+]([O-])[O-].[Mg+2] [magnesium nitrate] + O
Details | mass density [kg/m3] | speed of sound [m/s] | viscosity [mPa·s]
293.15 K, m1 = 2.131 | – | 1656.3 ± 2 | –
293.15 K, m1 = 2.493 | – | 1682.1 ± 2 | –
293.15 K, m1 = 2.793 | – | 1705.3 ± 2 | –
293.15 K, m1 = 3.118 | – | 1728.1 ± 2 | –
293.15 K, m1 = 3.17 | – | 1736.5 ± 2 | –
293.15 K, m1 = 3.501 | – | 1755.4 ± 2 | –
293.15 K, m1 = 3.757 | – | 1771.3 ± 2 | –
293.15 K, m1 = 4.051 | – | 1787.5 ± 2 | –
293.15 K, m1 = 4.285 | – | 1802.4 ± 2.1 | –
293.15 K, m1 = 4.403 | – | 1809.3 ± 2.1 | –
293.15 K, m1 = 4.883 | – | 1838.8 ± 2.1 | –
295.75 K, m1 = 0.3405 | 1032.9 ± 0.6 | – | –
296 K, m1 = 5.134 | 1404.4 ± 1 | – | –
297.5 K, m1 = 3.501 | 1299.9 ± 1.1 | – | –
297.65 K, m1 = 0.5931 | 1057.4 ± 0.6 | – | –
297.85 K, m1 = 4.285 | 1350.5 ± 0.8 | – | –
297.9 K, m1 = 3.17 | 1281.3 ± 1.2 | – | –
298.1 K, m1 = 2.493 | 1225.2 ± 0.8 | – | –
298.15 K, m1 = 0.0145 | – | 1498.3 ± 1.9 | 0.9075 ± 0.012
298.15 K, m1 = 0.0528 | – | 1500.5 ± 1.9 | 0.9227 ± 0.012
298.15 K, m1 = 0.2491 | – | 1514.9 ± 1.9 | 0.9713 ± 0.013
298.15 K, m1 = 0.3405 | – | 1519 ± 1.9 | –
298.15 K, m1 = 0.5931 | – | – | 1.079 ± 0.014
298.15 K, m1 = 0.6173 | – | 1540.9 ± 1.9 | –
298.15 K, m1 = 0.896 | – | 1563 ± 1.9 | –
298.15 K, m1 = 0.9898 | – | 1570.8 ± 1.9 | 1.232 ± 0.016
298.15 K, m1 = 1.262 | – | 1590 ± 1.9 | 1.366 ± 0.018
298.15 K, m1 = 1.525 | – | 1611.1 ± 1.9 | –
298.15 K, m1 = 1.827 | – | 1637.3 ± 1.9 | 1.662 ± 0.022
298.15 K, m1 = 2.131 | – | 1660.5 ± 2 | 1.842 ± 0.024
298.15 K, m1 = 2.493 | – | 1685.3 ± 2 | –
298.15 K, m1 = 2.584 | – | – | 2.206 ± 0.029
298.15 K, m1 = 2.793 | – | 1706.5 ± 2 | –
298.15 K, m1 = 3.096 | – | – | 2.665 ± 0.035
298.15 K, m1 = 3.118 | – | 1728.8 ± 2 | –
298.15 K, m1 = 3.17 | – | 1736.6 ± 2 | –
298.15 K, m1 = 3.329 | – | – | 2.921 ± 0.039
298.15 K, m1 = 3.501 | – | 1754.6 ± 2 | –
298.15 K, m1 = 3.704 | – | – | 3.367 ± 0.045
298.15 K, m1 = 3.757 | – | 1774.2 ± 2 | –
298.15 K, m1 = 4.039 | – | – | 3.889 ± 0.052
298.15 K, m1 = 4.051 | – | 1786.2 ± 2 | –
298.15 K, m1 = 4.285 | – | 1800.3 ± 2.1 | –
298.15 K, m1 = 4.403 | – | 1806.6 ± 2.1 | –
298.15 K, m1 = 4.728 | – | – | 5.349 ± 0.071
298.15 K, m1 = 4.883 | – | 1831.8 ± 2.1 | –
298.15 K, m1 = 4.907 | – | – | 5.933 ± 0.079
298.15 K, m1 = 5.134 | – | 1855.2 ± 2.1 | –
298.15 K, m1 = 5.282 | – | – | 7.034 ± 0.093
298.2 K, m1 = 5.134 | 1402.9 ± 1 | – | –
298.5 K, m1 = 4.051 | 1333.6 ± 0.8 | – | –
299.15 K, m1 = 0.0145 | 998.05 ± 0.63 | – | –
299.35 K, m1 = 0.0528 | 1002.2 ± 0.7 | – | –
299.6 K, m1 = 0.3405 | 1031.8 ± 0.6 | – | –
299.75 K, m1 = 2.131 | 1196.1 ± 0.8 | – | –
299.8 K, m1 = 3.501 | 1298.5 ± 0.9 | – | –
299.95 K, m1 = 4.728 | 1377.8 ± 0.8 | – | –
300.1 K, m1 = 3.17 | 1280 ± 0.9 | – | –
300.15 K, m1 = 4.883 | 1384.4 ± 0.9 | – | –
300.3 K, m1 = 4.285 | 1349 ± 0.9 | – | –
300.35 K, m1 = 2.493 | 1223.9 ± 0.8 | – | –
300.5 K, m1 = 0.9898 | 1095.4 ± 0.8 | – | –
300.5 K, m1 = 5.134 | 1401.4 ± 1 | – | –
300.75 K, m1 = 2.584 | 1232 ± 0.8 | – | –
300.75 K, m1 = 4.039 | 1332.1 ± 0.9 | – | –
300.85 K, m1 = 4.051 | 1332.2 ± 0.9 | – | –
300.9 K, m1 = 0.896 | 1085.9 ± 0.7 | – | –
300.95 K, m1 = 0.5931 | 1056.2 ± 0.7 | – | –
300.95 K, m1 = 1.262 | 1119.4 ± 0.7 | – | –
300.95 K, m1 = 2.793 | 1247.4 ± 0.8 | – | –
301 K, m1 = 4.97 | 1390.1 ± 1 | – | –
301.05 K, m1 = 3.704 | 1311.3 ± 0.9 | – | –
301.1 K, m1 = 1.525 | 1142.4 ± 0.7 | – | –
301.25 K, m1 = 4.403 | 1355.4 ± 0.8 | – | –
301.6 K, m1 = 0.2491 | 1022.3 ± 0.7 | – | –
302.1 K, m1 = 3.096 | 1269.1 ± 0.9 | – | –
302.1 K, m1 = 3.501 | 1297.2 ± 0.9 | – | –
302.25 K, m1 = 2.131 | 1194.8 ± 0.8 | – | –
302.25 K, m1 = 3.17 | 1278.7 ± 1.5 | – | –
302.3 K, m1 = 4.728 | 1376.3 ± 1 | – | –
302.4 K, m1 = 4.285 | 1347.6 ± 0.9 | – | –
302.55 K, m1 = 0.3405 | 1030.8 ± 0.9 | – | –
302.55 K, m1 = 2.493 | 1222.7 ± 0.8 | – | –
302.6 K, m1 = 1.827 | 1169.5 ± 0.8 | – | –
302.6 K, m1 = 4.883 | 1382.9 ± 0.9 | – | –
302.95 K, m1 = 4.039 | 1330.8 ± 0.9 | – | –
302.95 K, m1 = 5.134 | 1399.9 ± 1 | – | –
303.05 K, m1 = 0.0145 | 996.95 ± 0.64 | – | –
303.1 K, m1 = 1.694 | 1156.4 ± 0.7 | – | –
303.1 K, m1 = 2.584 | 1230.7 ± 0.8 | – | –
303.1 K, m1 = 2.793 | 1246.1 ± 0.9 | – | –
303.15 K, m1 = 0.0145 | – | 1509.5 ± 1.9 | 0.8115 ± 0.011
303.15 K, m1 = 0.0528 | – | 1511.9 ± 1.9 | 0.825 ± 0.011
303.15 K, m1 = 0.2491 | – | 1526.5 ± 1.9 | 0.8716 ± 0.012
303.15 K, m1 = 0.3405 | – | 1529.9 ± 1.9 | –
303.15 K, m1 = 0.5931 | – | – | 0.9679 ± 0.013
303.15 K, m1 = 0.6173 | – | 1550.7 ± 1.9 | –
303.15 K, m1 = 0.896 | – | 1571.2 ± 1.9 | –
303.15 K, m1 = 0.9898 | – | 1578.7 ± 1.9 | 1.112 ± 0.015
303.15 K, m1 = 1.262 | – | 1596.4 ± 1.9 | 1.228 ± 0.016
303.15 K, m1 = 1.525 | – | 1617 ± 1.9 | –
303.15 K, m1 = 1.827 | – | 1641 ± 1.9 | 1.493 ± 0.02
303.15 K, m1 = 2.131 | – | 1663.8 ± 2 | 1.654 ± 0.022
303.15 K, m1 = 2.493 | – | 1686.8 ± 2 | –
303.15 K, m1 = 2.584 | – | – | 1.969 ± 0.026
303.15 K, m1 = 2.793 | – | 1708.1 ± 2 | –
303.15 K, m1 = 3.096 | – | – | 2.38 ± 0.031
303.15 K, m1 = 3.118 | – | 1729.1 ± 2 | –
303.15 K, m1 = 3.17 | – | 1736.9 ± 2 | –
303.15 K, m1 = 3.329 | – | – | 2.611 ± 0.034
303.15 K, m1 = 3.501 | – | 1753.9 ± 2 | –
303.15 K, m1 = 3.704 | – | – | 2.998 ± 0.039
303.15 K, m1 = 3.757 | – | 1772.5 ± 2 | –
303.15 K, m1 = 4.039 | – | – | 3.462 ± 0.046
303.15 K, m1 = 4.051 | – | 1783.6 ± 2 | –
303.15 K, m1 = 4.285 | – | 1797.4 ± 2.1 | –
303.15 K, m1 = 4.403 | – | 1804.5 ± 2.1 | –
303.15 K, m1 = 4.728 | – | – | 4.73 ± 0.062
303.15 K, m1 = 4.883 | – | 1830.6 ± 2.1 | –
303.15 K, m1 = 4.907 | – | – | 5.225 ± 0.069
303.15 K, m1 = 4.97 | 1388.7 ± 0.9 | – | –
303.15 K, m1 = 5.134 | – | 1842.9 ± 2.1 | –
303.15 K, m1 = 5.282 | – | – | 6.141 ± 0.081
303.25 K, m1 = 0.0528 | 1001.1 ± 0.7 | – | –
303.3 K, m1 = 3.704 | 1309.8 ± 0.9 | – | –
303.5 K, m1 = 1.525 | 1141.2 ± 0.8 | – | –
303.5 K, m1 = 4.403 | 1353.9 ± 0.9 | – | –
303.55 K, m1 = 1.262 | 1118.2 ± 0.7 | – | –
303.85 K, m1 = 0.5931 | 1055.1 ± 0.8 | – | –
303.9 K, m1 = 0.896 | 1084.7 ± 0.7 | – | –
304.15 K, m1 = 0.6173 | 1057.7 ± 0.7 | – | –
304.25 K, m1 = 3.096 | 1267.7 ± 0.9 | – | –
304.35 K, m1 = 3.501 | 1295.8 ± 0.9 | – | –
304.35 K, m1 = 3.757 | 1312.3 ± 0.9 | – | –
304.55 K, m1 = 2.131 | 1193.6 ± 0.8 | – | –
304.55 K, m1 = 3.118 | 1268.5 ± 0.8 | – | –
304.55 K, m1 = 4.285 | 1346.2 ± 0.9 | – | –
304.55 K, m1 = 4.728 | 1374.9 ± 1 | – | –
304.8 K, m1 = 4.883 | 1381.4 ± 1 | – | –
305 K, m1 = 0.2491 | 1021.1 ± 0.7 | – | –
305 K, m1 = 1.827 | 1168.3 ± 0.8 | – | –
305.05 K, m1 = 2.493 | 1221.3 ± 0.8 | – | –
305.2 K, m1 = 4.051 | 1329.4 ± 0.9 | – | –
305.25 K, m1 = 4.039 | 1329.3 ± 0.9 | – | –
305.3 K, m1 = 1.694 | 1155.3 ± 0.8 | – | –
305.35 K, m1 = 2.584 | 1229.4 ± 0.8 | – | –
305.5 K, m1 = 2.793 | 1244.7 ± 0.9 | – | –
305.55 K, m1 = 3.704 | 1308.4 ± 0.9 | – | –
305.8 K, m1 = 0.9898 | 1093 ± 0.8 | – | –
305.85 K, m1 = 0.3405 | 1029.6 ± 0.7 | – | –
305.95 K, m1 = 1.525 | 1139.9 ± 0.8 | – | –
